In brackets after ≈: the same amount, converted by molar mass.

The subject of this assay is CCRF-CEM cells. The experiment in a line: growth inhibition / cytotoxicity against CCRF-CEM human leukemia cells in vitro. As to conditions: serum-free UltraCHO media, 72 hours incubation, read-out: IC50 (concentration required for 50% inhibition of growth), CCRF-CEM. Type of assay: cell-based. The protocol:
The in vitro data were obtained using CCRF-CEM cells, a human leukemia cell line. Foley et al., Cancer, 18:522 (1965). These cells were grown in albumin-free UltraCHO® media (BioWhittaker, Inc., Walkersville, Md.) using standard techniques. See, e.g., G. B. Grindey, et al., Journal of Molecular Pharmacology, 16:601 (1979). Dose-response curves were generated for various compounds to determine the concentration required for 50% inhibition of growth (IC50). Cluster plates were prepared in duplicate with the compound at various concentrations. Test compounds were dissolved initially in DMSO at a concentration of 4 mg/ml and further diluted with solvent to the desired concentration. Cells in serum-free UltraCHO media were added to the well at a final concentration of 4.8×10^4 cells/well in a total volume of 2.0 ml. After 72 hours of incubation (95% air, 5% CO2), cell numbers were determined on a ZBI Coulter counter. Cell number for indicated controls at the end of incubation was usually (4-6)×10^5 cells/well. Cell viability was also measured by staining with 3-[4,5-dimethylthiazol-2-yl]-2,5-diphenyl-tetrazolium bromide (MTT) using standard techniques. R. I. Freshney, Culture of Animal Cells: A Manual of Basic Technique, 253-254 (2d ed. 1987).
Column 1 refers to the example number of the compound tested; Column 2 depicts the in vitro cytoxicity against CCRF-CEM cells by relating the concentration of the test compound required for 50% inhibition of growth (IC50) of the cells in the well. The designation "CSQ" refers to the compound 4-amino-N-(5-chloro-2-quinoxalinyl)benzenesulfonamide and is used as a comparator.
Consider `O=S(=O)(Nc1cnc2c(Cl)cccc2n1)c1ccc2occc2c1` [Example 5, N-(5-chloro-2-quinoxalinyl)benzofuran-5-sulfonamide], for which the IC50 is 0.2 µg/mL (≈ 0.556 µM). On to `O=S(=O)(Nc1cnc2ccc(Cl)c(Cl)c2n1)c1ccc2c(c1)CCO2` [Example 15, N-(7,8-dichloro-2-quinoxalinyl)-2,3-dihydrobenzofuran-5-sulfonamide], for which the IC50 turned out to be 10.8 µg/mL (≈ 27.3 µM).

Regarding `CN(C)c1ccc(S(=O)(=O)Nc2cnc3cccc(Cl)c3n2)cc1` [Example 11, 4-N',N'-dimethylamino-N-(8-chloro-2-quinoxalinyl)benzenesulfonamide], the IC50 was 15.1 µg/mL (≈ 41.6 µM). With `Nc1ccc(S(=O)(=O)Nc2cnc3c(Cl)cccc3n2)cc1` [CSQ, 4-amino-N-(5-chloro-2-quinoxalinyl)benzenesulfonamide, reference compound], the IC50 turned out to be 0.8 µg/mL (≈ 2.39 µM). Under `CN(C)c1ccc(S(=O)(=O)Nc2cnc3ccc(Cl)c(Cl)c3n2)cc1` [Example 14, 4-N',N'-dimethylamino-N-(7,8-dichloro-2-quinoxalinyl)benzenesulfonamide] stands 4.6 µg/mL (≈ 11.6 µM); under `CN(C)c1ccc(S(=O)(=O)Nc2cnc3c(Cl)cccc3n2)cc1` [Example 2, 4-N',N'-dimethylamino-N-(5-chloro-2-quinoxalinyl)benzenesulfonamide], 0.1 µg/mL (≈ 0.276 µM); under `CN(C)c1ccc(S(=O)(=O)Nc2cnc3c(Cl)c(Cl)ccc3n2)cc1` [Example 12, 4-N',N'-dimethylamino-N-(5,6-dichloro-2-quinoxalinyl)benzenesulfonamide], 7.2 µg/mL (≈ 18.1 µM).

In the case of `CN(C)c1ccc(S(=O)(=O)Nc2cnc3cc(Cl)ccc3n2)cc1` [Example 7, 4-N',N'-dimethylamino-N-(6-chloro-2-quinoxalinyl)benzenesulfonamide], the IC50 turned out to be 1.2 µg/mL (≈ 3.31 µM). For the compound `Cn1ccc2cc(S(=O)(=O)Nc3cnc4c(Cl)cccc4n3)ccc21` [Example 6, N-(5-chloro-2-quinoxalinyl)-1-methyl-1H-indole-5-sulfonamide], the IC50 was found to be 0.4 µg/mL (≈ 1.07 µM).

As for `CN1CCc2cc(S(=O)(=O)Nc3cnc4ccc(Cl)cc4n3)ccc21` [Example 10, N-(7-chloro-2-quinoxalinyl)-2,3-dihydro-1-methyl-1H-indole-5-sulfonamide], the IC50 was determined as 10.8 µg/mL (≈ 28.8 µM).

`CN(C)c1ccc(S(=O)(=O)Nc2cnc3cc(Cl)c(Cl)cc3n2)cc1` [Example 1, 4-N',N'-dimethylamino-N-(6,7-dichloro-2-quinoxalinyl)benzenesulfonamide]: the IC50 is 0.8 µg/mL (≈ 2.01 µM). On to `O=S(=O)(Nc1cnc2c(Cl)c(Cl)ccc2n1)c1ccc2c(c1)CCO2` [Example 13, N-(5,6-dichloro-2-quinoxalinyl)-2,3-dihydrobenzofuran-5-sulfonamide], for which the IC50 amounted to 6 µg/mL (≈ 15.1 µM). With `CN1CCc2cc(S(=O)(=O)Nc3cnc4c(Cl)cccc4n3)ccc21` [Example 3, N-(5-chloro-2-quinoxalinyl)-2,3-dihydro-1-methyl-1H-indole-5-sulfonamide] the figure was 0.3 µg/mL (≈ 0.8 µM); with `O=S(=O)(Nc1cnc2c(Cl)cccc2n1)c1ccc2c(c1)CCO2` [Example 4, N-(5-chloro-2-quinoxalinyl)-2,3-dihydrobenzofuran-5-sulfonamide], 0.3 µg/mL (≈ 0.829 µM). Turning to `CN(C)c1ccc(S(=O)(=O)Nc2cnc3ccc(Cl)cc3n2)cc1` [Example 9, 4-(N',N'-dimethylamino)-N-(7-chloro-2-quinoxalinyl)benzenesulfonamide], the IC50 was 10.4 µg/mL (≈ 28.7 µM). Turning to `CN1CCc2cc(S(=O)(=O)Nc3cnc4cc(Cl)ccc4n3)ccc21` [Example 8, N-(6-chloro-2-quinoxalinyl)-2,3-dihydro-1-methyl-1H-indole-5-sulfonamide], the IC50 amounted to 1.5 µg/mL (≈ 4 µM).

Values taken from patent publication US5529999A, “Antitumor compositions and methods of treatment” (Eli Lilly and Company, priority 1994, dated 1996).
